In article PMC11251039, “Harnessing cholesterol uptake of malaria parasites for therapeutic applications” (EMBO Molecular Medicine, 2024):
pIC50: −log10 of the molar value. “And” between values parts separate entries of the source, which are not always exact repeats. Equal values may be shown once. Read-outs that look alike come from different tables or passages of the source.

What was measured:
[1] = tested on: P. falciparum stage III–IV gametocytes; experiment: P. falciparum gametocyte viability assay (MitoTracker, flow cytometry), stage III-IV; format: cell-based, Plasmodium falciparum; details: 48 h; for Gametocyte stage III-IV viability, percentage of control: replicate values, source data Fig. 2C, listed as BC5B
Experimental: (§1) Gametocyte assays commenced seven days (stage III–IV) or ten days (stage V) post-invasion. […]
(§2) Plasmodium falciparum Gametocyte Viability Assays:
(§3) Asexual P. falciparum parasites were induced to form gametocytes as described (21).
(§4) Synchronized trophozoite-stage parasites at 2% parasitaemia were incubated overnight and […]
(§5) haematocrit maintained at 4%. On the subsequent day (designated as day 0) of gametocytogenesis, the culture containing early ring-stage parasites was first purified by sorbitol synchronisation to remove asynchronous trophozoites, and passed through a magnetic field in a sterile MACS® column in a SuperMACSTM II magnet to remove remaining late-stage parasites or later-stage gametocytes (negative selection). The culture medium was supplemented with 50 mM N-acetyl-D-glucosamine to inhibit asexual parasite proliferation, and changed daily. Sorbitol treatment was performed on Day 1, 5, and 6 to further remove asexual parasites. Gametocytes were magnetically enriched (positive selection) in a sterile column with a SuperMACSTM II magnet and eluted in culture media with 50 mM N-acetyl-D-glucosamine. These gametocytes were incubated overnight at 37 °C under microaerophilic conditions, and purity was assessed by examination under a light microscope (400× […]
(§6) Gametocyte viability was assessed as described by Ridgway et al. (21) with modifications.
(§7) Compounds or solvent controls (DMSO) were serially diluted across 96-well plates in culture media supplemented with 50 mM N-acetyl-D-glucosamine. Culture media without compound was used as a negative control. […]
(§8) control to determine background gametocyte fluorescence. Stage III-IV gametocytes (Day 7) or stage V (day 10) gametocytes were concentrated and added to the plate with 200 µL per well. The plate was incubated for 48 hours at 37 °C under humid microaerophilic conditions.
(§9) Parasites were then stained with 500 nM MitoTrackerTM Deep Red FM and 5 μg/ml Hoechst […]
(§10) cytometer as described above. […]
(§11) excluded. Live (positive) and dead (negative) gametocytes were differentiated by […]
(§12) percentage of each was calculated. […]

[2] = tested on: Toxoplasma gondii tachyzoites (RH strain); experiment: Toxoplasma growth inhibition assay (tdTomato fluorescence, in HFF cells); format: cell-based; details: 72 h
Experimental: Fluorescence was measured daily with a fluorescence microplate reader for one week, and the background fluorescence from the time 0 reading was subtracted from all other measurements. […]
Toxoplasma Growth Inhibition Assays:
Growth inhibition was investigated as described previously (26). Fluorescent Toxoplasma gondii parasites were inoculated into an optical bottom 96-well plate containing confluent human foreskin fibroblast (HFF) host cells at a density of 2,000 parasites/well, with a serial dilution of each compound, or culture media/DMSO (0.1% v/v) alone. Plates were measured daily with a FluoStar Optima fluorescence plate reader at 540 nm excitation and 590 nm emission for one week, and the background fluorescence from the time 0 reading was subtracted from all other measurements. […]

[3] = tested on: P. falciparum stage V gametocytes; experiment: P. falciparum gametocyte viability assay (MitoTracker, flow cytometry), stage V; format: cell-based, Plasmodium falciparum; details: 48 h
Experimental: as §1, §2, §3, §4, §5, §6, §7, §8, §9, §10, §11, §12

[4] = tested on: asexual P. falciparum 3D7 wild-type parasites; experiment: P. falciparum asexual growth inhibition assay (SYBR Safe DNA replication); format: cell-based, Plasmodium falciparum; details: for P. falciparum asexual growth, percentage of control: replicate values, source data Fig. 2B, listed as BC5B; for IC90 / pIC50: Plasmodium falciparum; for pIC50: read-out: IC50, P. falciparum asexual growth inhibition
Outline: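 Sorbitol-synchronised ring-stage cultures at 1% parasitaemia and 1% haematocrit were exposed to 2-fold compound dilutions at 37 °C under microaerophilic conditions for 24, 48 or 72 h. Growth was read by SYBR Safe fluorescence of freeze-thaw lysates, with 200 nM chloroquine or artesunate defining background.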

`COc1cc(NC(C)CCCNC(=O)CCC(=O)O[C@H]2CC[C@H]3[C@@H]4CC=C5C[C@@H](O)CC[C@]5(C)[C@H]4CC[C@]23C)c2ncccc2c1` (some centres unmarked) [C-17-PQ] was tested, and the “Gametocyte stage III-IV viability, percentage of control” value ([1]; 0.390625000 uM, 0.390625 µM) was 106.6% and 106.4% and 106.3% and 105.9% and 97.84% and 98.56% and 99.18% and 96.09% and 94.81% and 99.34% and 96.51%, the “Gametocyte stage III-IV viability, percentage of control” value ([1]; 0.781250000 uM, 0.78125 µM) was 105.6% and 103.6% (2×) and 99.85% and 95.38% and 98.97% and 96.71% and 98.76% and 95.09% and 98.49% and 100.2% and the “Gametocyte stage III-IV viability, percentage of control” value ([1]; 1.562500000 uM, 1.5625 µM) was 98.2% and 92.41% and 99.85% and 96.05% and 86.9% and 96.5% and 96.91% and 95.26% and 86.31% and 88.01% and 87.16%. The “Gametocyte stage III-IV viability, percentage of control” value ([1]; 3.125000000 uM, 3.125 µM) was 76.23% and 73.04% and 83.77% and 78.85% and 72.15% and 82.91% and 79.82% and 79.41% and 67.61% and 67.33% and 65.91%, the “Gametocyte stage III-IV viability, percentage of control” value ([1]; 6.250000000 uM, 6.25 µM) was 47.47% and 48.87% and 53.06% and 57.19% and 51.38% and 37.08% and 52.02% and 49.97% and 47.91% and 50.9% (2×) and 52.03% and the “Gametocyte stage III-IV viability, percentage of control” value ([1]; 12.500000000 uM, 12.5 µM) was 32.49% and 39.99% and 32.61% and 29.26% and 32.88% and 27.73% and 25.88% and 43.81%. The “Gametocyte stage III-IV viability, percentage of control” value ([1]; 25.000000000 uM) was 17.71% and 16.11% and 15.11% and 33.28% and 21.89% and 14.3% and 17.64% and 12.08% and 12.7% and 13.79% and 6.704% and 7.271%, the “Gametocyte stage III-IV viability, percentage of control” value ([1]; 50.000000000 uM) was 5.639% and 8.492% and 6.658% and 16.42% and 3.442% and -2.383% and -3.188% and -11.09% and -14.21% and 3.059% and -3.824% and -12.14% and the “Gametocyte stage III-IV viability, percentage of control” value ([1]; 100.000000000 uM) was 3.289% and 0.9211% and -0.4605% and 9.774% and -7.24% and -17.63% and -19.17% and -25.26% and -26.31% and -15.93% and -26.87% and -31.48%. For the same molecule, the “Fold reduction in IC50 compared to primaquine alone” value [1] was 9 fold, the viability at 0.390625 µM ([1]; Plasmodium falciparum, read-out: Gametocyte stage III-IV viability, percentage of control, 0.390625000 uM, 48 h, replicate values, source data Fig. 2C) was 105% and the viability at 0.78125 µM ([1]; Plasmodium falciparum, read-out: Gametocyte stage III-IV viability, percentage of control, 0.781250000 uM, 48 h, replicate values, source data Fig. 2C) was 101%. It also gave a viability at 1.5625 µM ([1]; Plasmodium falciparum, read-out: Gametocyte stage III-IV viability, percentage of control, 1.562500000 uM, 48 h, replicate values, source data Fig. 2C) of 95%, a viability at 3.125 µM ([1]; Plasmodium falciparum, read-out: Gametocyte stage III-IV viability, percentage of control, 3.125000000 uM, 48 h, replicate values, source data Fig. 2C) of 72.4% and a viability at 12.5 µM ([1]; Plasmodium falciparum, read-out: Gametocyte stage III-IV viability, percentage of control, 12.500000000 uM, 48 h, replicate values, source data Fig. 2C) of 31.7%. For the same molecule, the pIC50 ([1]; Plasmodium falciparum, read-out: IC50, P. falciparum gametocyte stage III-IV inhibition, 48 h) was 5.15, the “Fold difference in IC50 to primaquine” value ([2]; listed as steroid-primaquine conjugate) was ~ 3.5 fold and 3 fold and the pIC50 ([2]; Toxoplasma gondii, HFF, read-out: IC50, T. gondii tachyzoite growth inhibition) was 5.55. For the same molecule, the “Fold reduction in IC50 compared to primaquine alone” value [3] was over 2 fold, the viability at 3.125 µM ([3]; Plasmodium falciparum, read-out: Gametocyte stage V viability, percentage of control, 3.125000000 uM, 48 h, replicate values, source data Fig. 2D) was 74.7% and the pIC50 ([3]; Plasmodium falciparum, read-out: IC50, P. falciparum gametocyte stage V inhibition) was 5.17. The “Fold lower IC50 than primaquine alone” value [4] was ~ 4 fold, the “P. falciparum asexual growth, percentage of control” value ([4]; 0.154296880 uM, 24 h) was 115.9% and 112.2% and 101.3% and 107.1% and 95.84% and 88.53% and 98.99% and 116.6% and 76.11% and the “P. falciparum asexual growth, percentage of control” value ([4]; 0.308593750 uM, 24 h) was 125.5% and 115.5% and 91.68% and 117.9% and 88.81% and 84.79% and 114.9% and 109.1% and 95.02%. For the same molecule, the “P. falciparum asexual growth, percentage of control” value ([4]; 0.617187500 uM, 24 h) was 131.7% and 113.6% and 103% and 85.01% and 97.93% and 83.36% and 109% and 162.3% and 97.26%, the “P. falciparum asexual growth, percentage of control” value ([4]; 1.234375000 uM, 24 h) was 120.1% and 114.6% and 99.7% and 107.3% and 77.37% and 93.38% and 101.7% and 96.22% and 102.4% and the “P. falciparum asexual growth, percentage of control” value ([4]; 2.468750000 uM, 24 h) was 89.52% and 83.68% and 69.39% and 87.34% and 56.13% and 47.54% and 76.36% and 68.29% and 79.29%. For the same molecule, the “P. falciparum asexual growth, percentage of control” value ([4]; 4.937500000 uM, 24 h) was 14.72% and 24.05% and 6.418% and 5.536% and -2.79% and -3.361% and 18.05% and 30.2% and 18.39%, the “P. falciparum asexual growth, percentage of control” value ([4]; 9.875000000 uM, 24 h) was 13.15% and 2.413% and -18.71% and -3.317% and -20.54% and -27.66% and -1.156% and -7.164% and -20.57% and the “P. falciparum asexual growth, percentage of control” value ([4]; 19.750000000 uM, 24 h) was -9.926% and -19.32% and -11.56% and 3.097% and -3.493% and -18.72% and 17.43% and -16.64% and -32.93%. The “Fold difference in IC90 to primaquine” value ([4]; 24 h) was ~ 8 fold, the “Hill slope of inhibitory curve” value ([4]; 24 h) was −4.56 and the “Hill slope of inhibitory curve” value ([4]; 72 h) was −4.20. The IC90 ([4]; 3D7, 24 h) was 5 µM, the pIC50 ([4]; 3D7, 24 h, 24 h, starting at ring stages) was 5.51 and the pIC50 ([4]; 3D7, 48 h, 48 h) was 5.52. For the same molecule, the IC90 ([4]; 3D7, 72 h) was 4 µM and the pIC50 ([4]; 3D7, 72 h, 72 h) was 5.62.
